Test results taken from US5665714A, “N-substituted glycerophosphoethanolamines” (Clarion Pharmaceuticals Inc., priority 1996, dated 1997).

Columns and labels:
[1] = system: HT-29 human colon carcinoma cell line; test: in vitro HT 29 cell inhibition assay (anti-tumor/antineoplastic activity, sulforhodamine B); assay type: cell-based; conditions: HT-29, 48 hours, 0 to 100 μM, FIG. 2, read-out: marked inhibition of cell growth at concentrations above
Description: FIG. 2 is a graphical representation of results from an in vitro HT 29 cell inhibition assay of two compounds of the invention, designated CPR 3003 and CPR 3004.
(§1) Assay for Anti-Tumor/Antineoplastic Activity
(§2) 1. Human tumor cell lines, available from the American Type Culture Collection (ATCC):
b. HT-29 (ATCC HTB 38): a human colon carcinoma cell line (attachment dependent).
b. for cell line 1-b: 1:1 DMEM and Ham's F-12 (DMEM/F12) plus 10% FBS.
(§3) 3. Standard protocol for culturing cell lines: in T-75 or T-150 flasks; 37° C.; 95% air, 5% CO2; 100% humidity.
(§4) a. Cell lines 1-a and 1-b are passaged when approximately 80% confluent; with trypsin (1 mg/mL) and EDTA (1 mM EDTA in Ca-Mg free Hank's balanced salt solution); at a 1:4 to 1:5 split.
b. All procedures are performed aseptically in a Class II biological safety cabinet using standard BL-2 containment procedures. […]
(§5) h. Read absorbance at 564 nm using a standard 96-well microtiter plate reader. Absorbance readings are linear with dye concentrations below 1.8 absorbance units. To reduce absorbance, decrease wavelength at which measurements are taken.
(§6) a. For a single point reading, a higher absorbance indicates a higher cell number; […]
(§7) d. Calculate CN (cell number as % of Control): [formula] where A(test compound) is absorbance with test compound present in the culture medium, A(control) is absorbance of control, and A(background) is absorbance of background;

[2] = system: RAW 264.7 murine monocyte/macrophage line; test: Assay for anti-inflammatory activity by inhibition of macrophage chemiluminescence (RAW 264.7, PMA, luminol); assay type: cell-based; conditions: 1 minute
Description: FIG. 4 is a graphical representation of results from an in vitro RAW 264.7 cell macrophage inhibition chemiluminescence assay of two compounds of the invention, designated CPR 3003 and CPR 3004.
Assay for Anti-inflammatory Activity by Inhibition of Macrophage Chemiluminescence
The RAW 264.7 cell line (available from the ATCC under accession no. TIB 71) is a murine monocyte/macrophage line the cells of which show many of the differentiative functions of a macrophage. Like macrophages, the cells are capable of phagocytosis and undergo a respiratory burst (increased oxygen consumption) and production of oxygen radicals (e.g., superoxide) in response to appropriate activation signals. Agents that inhibit the activation of these cells in vitro, so as to inhibit the respiratory burst and corresponding production of oxygen radicals associated with the activation, are therefore inhibitors of macrophage activation and critical steps in inflammatory processes. These agents are likely, then, to be anti-inflammatories.
The respiratory burst and corresponding production of oxygen radicals that accompany macrophage activation can be measured in a variety of ways, including chemiluminescence based on the reaction of the oxygen radicals with luminol added to the culture medium (see M. A. Trush et al, 1978, "The Generation of Chemiluminescence by Phagocytic Cells." Methods in Enzymology 57: 462-494). Indeed, chemiluminescence generated from luminol in the culture medium of macrophage cell lines is recognized in the art as a marker of macrophage activation.
1. Cell line: RAW 264.7 (ATCC TIB 71);
2. Culture medium: DMEM with 10% FBS (attachment dependent);
3. Standard protocol for culturing cell lines: in T-75 or T-150 flasks; 37° C.; 95% air, 5% CO2; 100% humidity;
4. Cell lines are passaged when approximately 80% confluent with trypsin (1 mg/mL) and EDTA ([…] in Ca-Mg free Hank's balanced salt solution), at a 1:4 to 1:5 split;
5. Trypsinize the cells and count with a hemocytometer;
6. Adjust concentration of cells to approximately 1,000,000 cells per mL;
7. Suspend cells in DMEM lacking phenol red and without FBS;
8. Pipette 1 mL, into a standard luminometer cuvet (12×75), commercially available from Analytical Luminescence Laboratories (San Diego, Calif.);
9. Add luminol to final concentration of 1 μM;
10. Add test compound at concentrations of 0, 1, 3, 10, or 30 μM;
11. Add 100 nanograms of phorbol myristate acetate (PMA);
12. Wait 1 minute and read photo counts (i.e., luminescence) on a Monolight 2010 luminometer available from Analytical Luminescence Laboratories;
13. The results are represented in FIG. 4, which illustrates the marked decrease in measured luminescence by the compounds tested at concentrations above 1 μM. Results are calculated as percent of control (no test compound present);
14. The results are also presented in Table 1, which tabulates the measured luminescence units at the indicated concentration of tested compound.

[3] = system: PAF (Platelet Activating Factor)-induced increase in TPR (Total Pulmonary Resistance); test: Assay for anti-PAF activity in anesthetized guinea pigs (PAF-induced increase in total pulmonary resistance); assay type: in vivo, guinea pig; conditions: for PAF-induced increase in TPR, % of Controls: n = 5, PAF Control 112.2
Procedure: FIG. 5 is a graphical representation of results from an in vivo antagonism of PAF (Platelet Activating Factor)-induced increase in TPR (Total Pulmonary Resistance) by the compound of the invention, designated CPR 3003.
Assay for Anti-PAF Activity in Anesthetized Guinea Pigs
Guinea pigs of 650-1000 g were used in order to facilitate catheterization of the jugular vein and carotid artery. The guinea pigs were anesthetized with 35-45 mg/kg pentobarbital sodium. When or if the recordings described below were unstable, anesthetic additions were made during the course of the intervention. The cutdown was a ventral medial incision over the cervical area so that the trachea, jugular vein and carotid artery could be cannulated. The animals were immediately attached to a volume regulated Harvard® rodent respirator, Model 683, via a tracheostomy and the respirator was set at 60 respirations per minute and a volume of 8 ml/kg to maintain a normal arterial PCO2 of approximately 40 mm Hg. Pancuronium bromide, a muscle relaxant, was then given intravenously at a dose of 0.2 mg/kg to prevent spontaneous breathing. A tube was connected to the respirator pump and the endotracheal catheter was attached to a pressure-transducing strain gauge and then to a 2-channel Gilson® physiological recorder. One channel of the recorder inscribed the pressure tracing from the airway; the second channel inscribed the pressure tracing from a similar strain gauge attached directly to a catheter inserted into the carotid artery. These two parameters were measured before and after each drug was given and at each increment in the dose response studies with each drug candidate and recorded. Total pulmonary resistance (TPR) was calculated as the difference between the expiratory pressure and inspiratory pressures with a constant volume.
After the anesthetic and muscle relaxant were given, the animal was allowed to stabilize. The airway was gently suctioned with a syringe and the lungs are briefly inflated by closing the expiratory port on the ventilator until the pressure was approximately three times resting pressure. When the pressure returned to a steady state, this TPR was considered control pressure. The dose-related increases or decreases were quantitated against these controls to determine the percent inhibition of PAF activity. Two doses of PAF were given as controls before the test compound was administered.
Decreases of TPR in a dose-related way indicate an inhibition of the constrictor activity of PAF on the airway.

[4] = system: PAM-212 murine keratinocyte cell line; test: Assay for anti-psoriatic activity by inhibition of keratinocyte proliferation (PAM-212); assay type: cell-based, murine (BALB/c mice); conditions: Mus musculus, PAM212; PAM-212, 48 hours, FIG. 3; read-out: marked inhibition of keratinocyte-proliferation at concentrations above
Description: FIG. 3 is a graphical representation of results from an in vitro PAM-212 cell inhibition assay of two compounds of the invention, designated CPR 3003 and CPR 3004.
Assay for Anti-psoriatic Activity by Inhibition of Keratinocyte Proliferation
1. Cell line: PAM-212 murine keratinocyte cell line isolated and cultivated from newborn BALB/c mice (see S. H. Yuspa et al., Cancer Research, 40, 4694-4703, December, 1980) that appears to retain many characteristics of normal keratinocytes.
2. Culture medium: 1:1 DMEM and Ham's F-12 with 10% FBS.
3. Culture conditions are the same as those described previously in parts 3(a) and 3(b) of Example 9.
4. Methodology is the same as that described previously in part 4 of Example 9, except that, with reference to part 4 (b), cell concentration is adjusted to 1,000 cells per 100 μL (rather than 5,000 cells per 100 μL), and, with reference to part 4(e), test compounds are diluted in DMEM/F12 prior to addition to cell wells.
5. End point determination and data analysis are done as described previously in parts 5 and 6 of Example 9.

[5] = system: MDA-MB-231 estrogen receptor negative human breast carcinoma cell line; test: in vitro MDA-MB-231 cell inhibition assay (anti-tumor/antineoplastic activity, sulforhodamine B); assay type: cell-based; conditions: MDA-MB-231, 48 hours, 0 to 100 μM, FIG. 1, read-out: marked inhibition of cell growth at concentrations above
Description: FIG. 1 is a graphical representation of results from an in vitro MDA-MB-231 cell inhibition assay of two compounds of the invention, designated CPR 3003 and CPR 3004.
as §1, §2
a. MDA-MB-231 (ATCC HTB 26): an estrogen receptor negative human breast carcinoma cell line (attachment dependent); and
a. for cell line 1-a: Dulbecco's Modified Eagle's Medium (DMEM) plus 10% Fetal Bovine Serum (FBS); and
as §3, §4
b. […]
as §5, §6, §7

[6] = system: tumor; conditions: Andreesen, Prog. Biochem. Pharmacol. 22, 118-131; cited from earlier work

Which minimal effective concentration [1] does the source give for CCCCCCCCCCCCCCCCCCOCC(COP(=O)(O)OCCNC1=NCCN1C1=NCCN1)OC (stereo not shown) [CPR 3003, 1-O-n-octadecyl-2-O-methyl-glycero-3-phospho-N-[3-(2-imidazolinyl)-2-imidazolinyl]-ethanolamine] here?
Its minimal effective concentration is over 3 µM.

And the measured luminescence ([2]; 1 μM test compound)?
The measured luminescence was 2,051,640 Luminescence Units.

And the measured luminescence ([2]; 3 μM test compound)?
Its measured luminescence is 755,617 Luminescence Units.

What about the measured luminescence ([2]; 10 μM test compound) of the same compound?
The measured luminescence was 224,213 Luminescence Units.

And the measured luminescence ([2]; 30 μM test compound)?
Its measured luminescence is 18,228 Luminescence Units.

What about the “PAF-induced increase in TPR, % of Controls” value ([3]; 1 μM) of the same compound?
The value was 110 % of Controls.

And the “PAF-induced increase in TPR, % of Controls” value ([3]; 10 μM)?
The value was 7 % of Controls.

And the “PAF-induced increase in TPR, % of Controls” value ([3]; .1 μM)?
The value was 232.2 % of Controls.

What about the “change of PAF-induced increase in TPR” value ([3]; incremental doses of 0.1, 1, and 10 μM) of the same compound?
The value was “change the PAF-induced increase in TPR in all animals”.

And the minimal effective concentration [4]?
Its minimal effective concentration is over 10 µM.

What about the minimal effective concentration [5] of the same compound?
The minimal effective concentration was over 3 µM.

With CCCCCCCCCCCCCCCCCCOCC(COP(=O)(O)OCCNC1=NCCN1)OC (stereo not shown) [CPR 3004, 1-O-n-octadecyl-2-O-methyl-glycero-3-phospho-N-(2-imidazolinyl)-ethanolamine] as the compound, how does the minimal effective concentration [1] read?
Its minimal effective concentration is over 3 µM.

What about the measured luminescence ([2]; 1 μM test compound) of the same compound?
The measured luminescence was 524,414 Luminescence Units.

And the measured luminescence ([2]; 3 μM test compound)?
The measured luminescence was 134,836 Luminescence Units.

And the measured luminescence ([2]; 10 μM test compound)?
The measured luminescence was 23,849 Luminescence Units.

And the measured luminescence ([2]; 30 μM test compound)?
Its measured luminescence is 6,128 Luminescence Units.

What about the minimal effective concentration [4] of the same compound?
The minimal effective concentration was over 10 µM.

And the minimal effective concentration [5]?
The minimal effective concentration was over 3 µM.

Which anti-tumor activity [6] does the source give for CCCCCCCCCCCCCCCCCCOC[C@H](COP(=O)([O-])OCC[N+](C)(C)C)OC [ET 18-OCH3, 1-O-octadecyl-2-O-methyl-sn-glycero-3-phosphocholine] here?
The anti-tumor activity was “markedly potent anti-tumor activity”.
